# Results taken from US20070082865A1, “Compositions and methods for treatment of airway hypersecretion” (Washington University, priority 2005, published 2007).
# How the values were obtained:
# [1] = tested on: EGFR signaling (Akt activation); test: Western blot of lung lysates from SeV-inoculated mice treated with EKB-569; assay type: in vivo, C57BL/6J mice
# Method: Blotting was with the indicated antibodies. Methodology is further described in Examples 1 and 2.
# (§1) C57BL/6J and Balb/cJ mice were obtained from The Jackson Laboratory (Bar Harbor, Me.) and were maintained and monitored under pathogen-free conditions for study at 7 wk of age as described previously (Walter et al. (2001); Walter et al. (2002); Tyner et al. (2006) J. Clin. Invest. 116:309-321). SeV (Fushimi Strain 52) was grown in embryonated hen eggs and harvested to provide a viral stock solution such that 5000 EID50 (50% egg infectious dose) was equivalent to 2×10^5 PFU (plaque-forming units). This inoculum or an equivalent amount of UV-inactivated SeV was delivered intranasally in 30 μl PBS under ketamine/xylazine anesthesia. Under these conditions, viral tissue levels are maximal at days 3-5 after infection and viral clearance is complete by day 12 (Walter et al. (2001); Walter et al. (2002); Tyner et al. (2006) J. Clin. Invest. 116:309-321). […] For IL-13 blockade, mice were given subcutaneous injections of soluble murine IL-13Rα2 fused to Fc (slL Example 2: EGFR inhibition decreases aspects of epithelial remodeling 13Rα2-Fc; obtained from Deborah Donaldson, Wyeth Ayerst; 200 μg/mouse in PBS) or control Fc on days 12, 14, 17, and 20 post-infection (Donaldson (1998) J. Immunol. 161, 2317).
# [2] = tested on: airway epithelium (ciliated, Clara and goblet cells); test: Quantitative morphometry of airway epithelial cell types (β-tubulin, CCSP, MUC5AC immunostaining) after SeV inoculation; assay type: in vivo, C57BL/6J mice
# Description: Values represent mean+SEM, and a significant difference from SeV-UV control is indicated by (*). Methodology is further described in Example 2.
# FIG. 24 is a bar graph showing quantitative analysis of β-tubulin (ciliated cells), CCSP (Clara cells), and MUC5AC (goblet cells) immunostaining in airways of mice infected with SeV and treated with slL-13 receptor antagonist (slL-13Ra2-Fc) or control IgG from on days 12, 14, 17, and 20 after inoculation. Bars=20 μm. A significant difference from corresponding IgG treatment is indicated by (*). Methodology is further described in Example 4.
# as §1
# Mouse lung was fixed by intraracheal instillation of 4% paraformaldehyde at 25-cm H2O pressure. After overnight fixation at 4° C., tissue was embedded in paraffin, and cut into 3-μm thick sections for hematoxylin/eosin or immunostaining.
# For immunostaining, tissue sections were deparaffinized, rehydrated in graded alcohol and encircled with a hydrophobic film (ImmEdge PEN, Vector laboratories, Burlingame, Calif.). […] EGFR was detected using rabbit-antihuman EGFR antibody SC-03 from Santa Cruz Biotechnology (Santa Cruz, Calif.) directed against amino acid residues 1005-1016 that are identical to corresponding sequence in murine EGFR. Phosphorylated EGFR (p-EGFR) was detected using rabbit anti-phospho-EGFR (Tyr845) antibody #2231 from Cell Signaling Technology Inc. (Beverly, Mass.) directed against phosphorylated Tyr^845. […]
# [3] = tested on: ciliated epithelial cells in mouse tracheal epithelial cell (mTEC) cultures; test: Ciliated cell survival in mTEC cultures (β-tubulin staining cells as % of total Hoechst-staining cells); assay type: cell-based; conditions: treatment for 7 days
# [4] = tested on: EGFR-dependent signals (p-EGFR, p-Akt, p-ERK1/2); test: Western blot of EGF-stimulated mTEC cultures with or without inhibitor; assay type: cell-based, mouse; conditions: basic medium then EGF stimulation, inhibitor at maximal effective concentration
# [5] = tested on: mouse tracheal epithelial cell (mTEC) cultures; test: Apoptosis in mTEC cultures (active caspase 3, TUNEL); assay type: cell-based; conditions: mTEC with EGFR signaling blockade plus z-VAD-fmk (100 μM)
# Method: Bar=20 μm. Methodology is further described in Example 3.
# FIGS. 13A and 13B are bar graphs showing quantitative analysis of FIG. 12 for activate caspase-3 staining cells (expressed as % of total Hoechst staining cells) using treatment conditions from FIG. 12 as well as PD15305 plus zVAD-fmk (100 μM). Values represent mean+SEM, and a significant difference from vehicle alone is indicated by (*). Methodology is further described in Example 3.
# AIRWAY EPITHELIAL CELL CULTURE AND TREATMENT.
# IMMUNOCYTOCHEMISTRY. Cultured cells were washed twice with PBS at 4° C., fixed in 4% paraformaldehyde for 10 min. at 25° C., washed with PBS, and permeabilized with ethanol:acetic acid (2:1, vol/vol) for 5 min at −20° C. for TUNEL reaction or with 0.2% Triton-X for 5 min at 25° C. for immunostaining. Permeabilized cells were then washed with PBS and subjected to the TUNEL reaction (Intergen, Purchase, N.Y.) or blocked with 2% fish gel 1 h at 25° C. and incubated with rabbit anti-active caspase 3 (BD Biosciences, San Diego, Calif.), rabbit anti-EGFR (Santa Cruz Biotechnology, Santa Cruz, Calif.), rabbit anti-p-EGFR (Cell Signaling Technology, Inc., Beverly, Mass.), mouse anti-β-tubulin-IV or rabbit anti-β-tubulin (Sigma, St. Louis, Mo.) antibodies overnight at 4° C. Primary antibody binding was detected with goat anti-mouse or donkey anti-rabbit FITC or CY3 secondary antibody. […]
# [6] = SeV, EGFR inhibitor daily post-infection days 10-21, read at day 21
compound,measurement,setting,value
CCOc1cc2ncc(C#N)c(Nc3ccc(F)c(Cl)c3)c2cc1NC(=O)/C=C/CN(C)C [EKB-569],Akt activation in whole mouse lung,"[1]; 20 mg/kg by gavage daily, post-infection days 10-21, day 21 post-infection",full inhibition
same,EGFR signaling in vivo,"[1]; oral, each day from post-inoculation day 10 through day 21",blocked EGFR signaling
same,Clara cell decreases,[2]; [6],complete blockade
same,ciliated cell increases,[2]; [6],complete blockade
same,goblet cell metaplasia,[2]; [6],partial but significant inhibition
same,total number of airway epithelial cells (cytokeratin-staining cells),"[2]; post-inoculation day 21, vehicle 133±3",137±5 per mm basement membrane
COc1cccc(-c2cc(=O)c3ccccc3o2)c1N [PD98059],loss of ciliated epithelial cells,[3],only treatment with LY294002 caused a similar loss
same,phosphorylation of ERK1/2,[4],blocked
COc1cc2ncnc(Nc3cccc(Br)c3)c2cc1OC [PD153035],loss of ciliated epithelial cells,[3],dose-dependent loss of ciliated cells
same,downstream EGFR signals,[4],blocked all downstream signals
z-Val-Ala-Asp fluoromethylketone [z-VAD-fmk],TUNEL-positive cells undergoing apoptosis,[5],blocked
